Reference: patent publication US10526317B2, “Benzocyanine compounds” (PIERCE BIOTECHNOLOGY, INC., priority 2012, dated 2020)
“Also recorded” adds a separate entry of the source.

Columns and labels:
[1] = system: rabbit IgG immunoglobulin; test: Functional fluorescence plate assay, dye-GAR conjugates; type: binding; conditions: LiCOR Odyssey, FIGS. 17, 19
Method: Performance of the dye-GAM conjugates, dye-GAR conjugates, and dye-SA conjugates was evaluated in a functional plate assay. Wells of a 96 white opaque plate or black clear-bottom plate were coated with target proteins mouse IgG immunoglobulin, rabbit IgG immunoglobulin, or biotinylated bovine serum albumin (BBSA). One hundred μl mouse or rabbit IgG, or BBSA at a concentration of 10 μg/ml was applied to the corresponding wells in columns 1 and 2. The target proteins were serially diluted 1:1 from the wells in columns 2 to 11 using 100 μl PBS. One hundred μl of the samples from the wells in column 11 were discarded. One hundred μl PBS was added to the wells in column 12. The plates were incubated overnight at 4° C. and then blocked 2×200 μl with Thermo Scientific SuperBlock® Blocking Buffer. The coated plates were washed 2×200 μl with PBS-Tween and 1×200 μl with PBS. Based on the calculated concentrations, conjugates were diluted 1:250 in PBS, added to the corresponding plates (100 μl/well) and then incubated for one hour in the dark. The plates were washed with 2×200 μl with PBS-Tween and 1×200 μl with PBS and filled with PBS buffer (100 μl/well) prior to scanning the white opaque plates on Tecan Safire using 679 nm excitation/702 nm emission or scanning the black clear-bottom plates on LiCor Odyssey at 700 channel, to detect fluorescence intensity.

lamin A [2] = test: Immunofluorescence detection of lamin A in U2OS cells, dye-GAM secondary (FIG. 29A-C and repeat); type: cell-based, human; conditions: for Mean Total Intensity, Negative control: no primary antibody
Method: In the indicated experiments, the inventive compounds and commercial dye were evaluated for immunofluorescence in a cell based assay using the following protocol. Frozen U20S cell plates which were stored at −80° C. were thawed for 45 minutes at 50° C. Storage buffer (PBS) was removed and the cells were permeabilized for 15 minutes with 0.1% Triton-X100 in 1×PBS buffer (100 μl/well). The cell plate was blocked for 60 minutes in 2% BSA/PBS-0.1% Triton-X100. Primary antibody, either rat anti-Grp94 (5 μg/ml), mouse anti-lamin A (10 μg/ml), or rabbit anti-lamin B1 (10 μg/ml), diluted in 2% BSA/PBS-0.1% Triton-X100 was added to the plate and incubated for 1 hour at room temperature. Control wells contained only 2% BSA/PBS-0.1% Triton-X100 blocker. After incubation, the antibody solution was removed from the plate and the plate was washed three times with 100 μl/well of PBS-0.5% Tween-20 and one time with 100 μl/well PBS. GARat, GAM, or GAR secondary antibodies labeled with various molar excess of the inventive or commercial compound were diluted to 4 μg/ml in PBS and incubated for 1 hour at room temperature. The plates were washed three times with 100 μl/well of PBST and once with 100 μl/well PBS, and Hoechst (diluted to 0.1 μg/ml in PBS) was added to each well (100 μl/well). The plates were scanned on ArrayScan Plate Reader or ToxInsight Instrument.
Quantitative analysis of a repeat experiment of FIG. 29A-C are shown below.

lamin A [3] = test: Immunofluorescence, U2OS cells, mouse anti-lamin A, dye-GAM secondary (FIG. 25); type: cell-based, human
Method: The inventive compounds and commercial dye were evaluated for immunofluorescence in a second cell based assay using the following protocol. Frozen U20S cell plates stored at −20° C. were placed overnight at 4° C. Storage buffer (PBS) was removed and the cells were permeabilized for 15 min (100 μl/well) with 0.1% Triton-X100 in 1×PBS buffer. Plates were blocked for 30 min in 2% BSA in 1× PBS-0.1% Trion-X100. Primary antibodies diluted in 2% BSA in 1×PBS-0.1% Trion-X100 were added to the plates (column 1-11; column 12 included only blocker) and incubated five hours at room temperature. Mouse anti-lamin A was added at 2 μg/ml and rabbit anti-lamin B1 was added at 4 μg/ml. After incubation, the antibody solution was removed from the plates and the plates were washed PBS-0.5% Tween-20 (2×100 μl/well). Next, GAM and GAR secondary antibodies labeled with DyLight 680-NHS, DyLight 680B-NHS, 679 Compound 1-NHS, and Cy5.5 Mono Ester were diluted to 4 μg/ml in PBS and incubated with the cells for one hour at room temperature. […], DyLight 680B-NHS, 679 Compound 1-NHS, […] PBS and then serially diluted 1:1 in the plate to the following concentrations: 2 μg/ml, 1 μg/ml, 0.5 μg/ml, 0.25 μg/ml, 0.125 μg/ml and/or 0.0625 μg/ml. The plates were washed 3× with 100 μl/well PBS, and Hoechst stain diluted to 0.1 μg/ml in PBS was added to each well (100 μl/well). The plates were scanned on ArrayScan Plate Reader for imaging and quantitation.
Quantitative analysis of FIG. 25 data, expressed as Mean Total Intensity, which is the average total intensity of all pixels within a defined area or defined primary object such as a nucleus, is shown below.

[4] = Absorption/emission profiles and spectral properties of the dyes; type: physicochemical
Method: The following properties of 679 Compound 1-NHS were compared with commercially available dyes.
Emission/excitation profiles for inventive and commercial compounds was determined by reconstituting the compounds in DMF at 10 mg/ml and then diluting in PBS buffer pH 7.2 to 10 μg/ml. Absorbance spectra were collected on Cary UV spectrophotometer and emission spectra were collected on Tecan Safire, shown in FIG. 1 where solid lines represent absorbance spectra and dashed lines represent emission spectra, for DyLight 680-NHS (purple), DyLight 680B-NHS (blue), 679 Compound 1-NHS (red), and Company B Compound-NHS (black). The maximum absorbance and emission for each compound is shown below.
The following properties of 679 Compound 1-NHS, 679 Compound 4/4-NHS (V08-15173), and 679 Compound 4/4-NHS (V10-04152) were compared with commercially available dyes.

[5] = Photobleaching without anti-fade, U2OS cells stained with lamin B1/dye-conjugated GAR; type: physicochemical
Method: Photobleaching of inventive and commercial compounds without anti-fade reagent was examined. U2OS cells stained with lamin B1/dye-conjugated GAR were exposed to bright light (3.4V) for 8 sec at intervals of 1 sec, the overall capture amounting to a total of about 15 min using the TR filter Obj.: 20× NA: 0.4 on the Zeiss Axio Observer .Z1 microscope. The image stacks collected from the time-lapse experiment were analyzed using ImageJ software to determine the decay rate of fluorescence intensity. The raw intensity was normalized to initial intensity for each conjugate and the photobleaching curve was plotted against time, as shown in FIG. 48. Immunostaining with 679 Compound 4/4 conjugate had shown about 2 to 3-fold brighter staining intensity compared to DyLight 680 Dye.

[6] = In vivo biodistribution and clearance of free dye; design: species or system nude mice; conditions: 100 μL of 1 mg/mL hydrolyzed dye IV via retro orbital plexus, imaged to 24 h
Method: In in vivo biodistribution, the mice received intravenous dye injections via the retro orbital plexus and were imaged on a Carestream MSFX Imager (690 nm excitation/750 nm emission) before injection and at 0 h, 3 h, 6 h, 12 h, and 24 h post injection. After the final time point, animals were sacrificed and organs were collected for ex vivo imaging. Toxicity was evaluated by investigating the dissected tissue section.
Biodistribution and clearance was investigated in the live animals over time by measuring the clearance or specific retention of the dye/labeled target. Experiments were performed in triplicate on nude mice. 100 μL of 1 mg/mL hydrolyzed dye solution was IV injected via the retro orbital plexus. Animals were imaged using 690 nm excitation and 750 nm emission at 140 mm FOV on a Carestream XTREME (10 s) Imager. Images taken before (pre) and at 0 min, 10 min, 30 min, 1 hour, 3 hour, 6 hour, 12 hour and 24 hours post injection are shown in FIG. 44B. After the final time point, the organs were collected for ex vivo imaging to confirm and quantify accumulation of the agent in tumors, tissues, and other organs (heart, liver, spleen, GI tract, lungs and kidney), as shown in FIG. 44C using triplicate mice. 679 Compound 4/4 allowed for probe conjugation, high fluorescence with excellent sensitivity for deep-tissue in vivo imaging, and target quantification in tissues.

[7] = Dye toxicity, H&E histology of heart, liver, spleen, lungs, kidney; type: in vivo; conditions: H&E staining of tissues after 24 h
Method: After the final time point, animals were sacrificed and their organs collected for ex vivo imaging to confirm and quantify dye accumulation in tumors, tissues, and other organs such as heart, liver, spleen, GI tract, lungs, and kidney. Images were taken before (pre), and at 0 min, 10 min, 30 min, 1 hour, 3 hour, 6 hour, 12 hour, and 24 hour post injection. To test dye toxicity, heart, liver, spleen, lungs and kidney tissues were gathered from one mouse from each cohort, fixed, stained with hematoxylin and eosin (H&E), and evaluated.
Colorimetric images were acquired at 20× on a Nikon 90i microscope.

lamin A [8] = test: Immunofluorescence of nuclear envelope in U2OS cells, mouse anti-lamin A, dye-GAM (FIG. 43); type: cell-based, human; conditions: FIG. 43A
Method: U2OS (human bone cancer) or HeLa cells were seeded at 5,000 cells per well in 96-well plates and incubated for 18-20 hours at 37° C., 5% CO2 in a humidified incubator. The cells were fixed with 4% paraformaldehyde and permeabilized with 0.1% Thermo Scientific Surfact-Amps X-100 Detergent, then blocked for nonspecific IgG binding. Cells were incubated with a target-specific primary antibody for 30 minutes at room temperature (RT). After washing with PBS containing 0.05% Tween™-20 Detergent Solution, cells were incubated for 30 minutes at RT with 4 μg/mL of the appropriate secondary antibody conjugated with 679 Compound 4/4 and compared to similarly conjugated counterparts (DyLight 680, Alexa Fluor™ 680, and CF™ 680 Dyes) for 30 minutes at RT. The conjugates were affinity purified goat anti-mouse IgG (H+L) (GAM) or goat anti-rabbit IgG (H+L) (GAR). […] Microscopy time lapse experiments to measure dye photostability were performed using the appropriate shift-free optical filter set with a 40×/1.3 oil objective on a Zeiss Axio Observer™ .Z1 fluorescence microscope using an ORCA-ER-1394 Hamamatsu, CCD Digital Camera and the AxioVison™ Release 4.7 Software. […]
The nuclear envelop in U2OS cells was fluorescently labeled with mouse anti-lamin A primary antibody and detected with goat anti-mouse conjugated to 679 Compound 4/4-NHS, DyLight 680-NHS, Alexa Fluor 680-NHS and CF 680-SE Dyes. […]

With COCC[N+]1=C(/C=C/C=C/C=C2/N(CCCCCC(=O)O)c3ccc4c(S(=O)(=O)[O-])cc(S(=O)(=O)[O-])cc4c3C2(C)C)C(C)(CCCS(=O)(=O)[O-])c2c1ccc1c(S(=O)(=O)[O-])cc(S(=O)(=O)[O-])cc21.[Na+].[Na+].[Na+].[Na+] (centres unmarked) [679 Compound 1/1, 2-{(1E,3E)-5-[3-(5-Carboxypentyl)-1,1-dimethyl-6,8-disulfo-1,3-dihydro-benzo[e]indol-(2E)-ylidene]-penta-1,3-dienyl}-3-(2-methoxy-ethyl)-1-methyl-6,8-disulfo-1-(3-sulfopropyl)-1H-benzo[e]indolium] the “Raw Fluorescence Intensity, quenching at high molar excess (in words)” value [1] was “saturating at 25×; also recorded: apparent quenching at 1000 ng/well at 25×”, the “Mean Total Intensity (Average)” value (lamin A [2]; GAM conjugate 4 μg/ml, 2.5 X molar excess) was 29229 and the “Mean Total Intensity (Average)” value (lamin A [2]; GAM conjugate 4 μg/ml, 5.0 X molar excess) was 49279. For the same compound, the “Mean Total Intensity (Average)” value (lamin A [2]; GAM conjugate 4 μg/ml, 7.5 X molar excess) was 28782, the “Mean Total Intensity (Average)” value (lamin A [2]; GAM conjugate 4 μg/ml, 10 X molar excess) was 30098 and the “Mean Total Intensity (Average)” value (lamin A [2]; GAM conjugate 4 μg/ml, 15 X molar excess) was 48071. For the same compound, the “Mean Total Intensity, Negative control” value (lamin A [2]; 2.5 X) was 5628, the “Mean Total Intensity, Negative control” value (lamin A [2]; 5.0 X) was 5859 and the “Mean Total Intensity, Negative control” value (lamin A [2]; 10 X) was 6115. For the same compound, the “Mean Total Intensity, Negative control” value (lamin A [2]; 15 X) was 7277, the S/B (lamin A [2]; repeat experiment, 2.5 X) was 8.9 and the “Mean Total Intensity (Average)” value (lamin A [2]; repeat experiment, 2.5 X molar excess) was 77195. The S/B (lamin A [2]; repeat experiment, 5 X) was 16.2, the “Mean Total Intensity (Average)” value (lamin A [2]; repeat experiment, 5 X molar excess) was 140772 and the S/B (lamin A [2]; repeat experiment, 10X) was 7.8. For the same compound, the “Mean Total Intensity (Average)” value (lamin A [2]; repeat experiment, 10X molar excess) was 159948, the S/B (lamin A [2]; repeat experiment, 15 X) was 12.3 and the “Mean Total Intensity (Average)” value (lamin A [2]; repeat experiment, 15 X molar excess) was 199626. The “Mean Total Intensity, Negative control” value (lamin A [2]; repeat experiment, 2.5 X) was 8711, the “Mean Total Intensity, Negative control” value (lamin A [2]; repeat experiment, 5 X) was 8674 and the “Mean Total Intensity, Negative control” value (lamin A [2]; repeat experiment, 10X) was 20481. For the same compound, the “Mean Total Intensity, Negative control” value (lamin A [2]; repeat experiment, 15 X) was 16277.
In the case of Cy5.5, the “Mean Total Intensity” value (lamin A [3]; GAM conjugated at 2X molar excess) is reported as 211945, the “Mean Total Intensity” value (lamin A [3]; GAM conjugated at 3X molar excess) is reported as 342208 and the “Mean Total Intensity” value (lamin A [3]; GAM conjugated at 4X molar excess) is reported as 451111.
For COCCOCCOCCOCC[N+]1=C(/C=C/C=C/C=C2/N(CCOCCOCCOCCOCCC(=O)O)c3ccc4c(S(=O)(=O)[O-])cc(S(=O)(=O)O)cc4c3C2(C)CCOCCOCCOCCOC)C(C)(CCOCCOCCOCCOC)c2c1ccc1c(S(=O)(=O)O)cc(S(=O)(=O)O)cc21 (centres unmarked) [679 Compound 4/4], the emits at [4] was 706 nm, the excites at [4] was 684 nm and the “photostability (in words)” value ([5]; absence of anti-fade agent) was “slightly less stable than DyLight 680 dye”. The “staining intensity, fold brighter compared to DyLight 680 Dye” value ([5]; immunostaining) was 2 to 3 fold, the “biodistribution and clearance (in words)” value [6] was “rapid clearance through kidney and/or gastrointestinal tract; also recorded: fast whole-body dye uptake and displayed rapid dye clearance mainly through the kidney and GI tract” and the “toxicity (in words)” value [7] was “low intrinsic toxicity; also recorded: No tissue damage was observed from histology”. For the same compound, the “staining intensity, fold brighter compared to DyLight 680-GAM, Alexa Fluor 680-GAM and CF 680-GAM” value (lamin A [8]) was 2-3 fold.
